We go through 15 compounds from PMC9515629, “Cystargolide-based amide and ester Pz analogues as proteasome inhibitors and anti-cancer agents” (Royal Society Open Science, 2022).

What is called IC50 is the concentration at which inhibition is half-maximal. The logP is a log measure of how a compound divides between an organic and an aqueous phase. The low end stands for lower lipophilicity, the high end for higher lipophilicity. Usually half-life stands for the time needed for the level to fall by half in the phase considered. Higher therefore signals slow decline.

Structures are written as SMILES. Like-named read-outs stand apart in the source and are kept apart here.

For data set [1] the following is noted: cited from earlier work.
Data set [2] addresses T1, β5 subunit of human proteasomes (hβ5) (Homo sapiens, UniProt P28074).
T1 construct: endogenous in cells; host or cells: Jurkat cell lysate (crude)
T1 sequence (P28074 60-263): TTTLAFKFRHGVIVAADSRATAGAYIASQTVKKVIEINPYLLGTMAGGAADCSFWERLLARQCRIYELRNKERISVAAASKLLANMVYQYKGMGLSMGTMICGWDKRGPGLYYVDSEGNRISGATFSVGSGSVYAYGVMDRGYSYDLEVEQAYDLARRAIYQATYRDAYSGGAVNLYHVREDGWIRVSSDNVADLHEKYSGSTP
As to the kind of experiment: Proteasome chymotrypsin-like (β5) activity in crude Jurkat cell lysate, Suc-LLVY-AMC substrate. The data set is classed as biochemical. As to conditions: read-out: proteasome inhibition IC50 ± s.d., hβ5. The procedure: Based on our previously reported procedure, the degree of peptide cleavage in a crude Jurkat cell lysate was measured to determine proteasome activity. The fluorescent substrate Suc-LLVY-AMC (Enzo Life Sciences) was used to determine chymotrypsin-like (β5) activity of the proteasomes.

Data set [3] has as its system Jurkat cells. As to the kind of experiment: Cytotoxicity toward Jurkat cells. Format: cell-based. To be noted: Homo sapiens, read-out: cytotoxicity IC50 ± s.d., Jurkat. The procedure: (§1) Next, analogues 8a–l were evaluated for their cytotoxicities toward Jurkat cells, a human T-cell leukemia model, as well as the breast cancer cell lines MCF-7 and MDA-MB-231, and the multiple myeloma cell line RPMI 8226.

Data set [4] concerns RPMI 8226 cells. As to the kind of experiment: Cytotoxicity toward RPMI 8226 cells. Format: cell-based. To be noted: Homo sapiens, read-out: cytotoxicity IC50 ± s.d., RPMI 8226. The procedure:
as §1

For data set [5], the system named is MCF-7 cells. Briefly: Cytotoxicity toward MCF-7 cells. To be noted: Homo sapiens, MCF7; read-out: cytotoxicity IC50 ± s.d., MCF-7. The data set is classed as cell-based. The procedure:
as §1

For data set [6], the system named is MDA-MB-231 cells. Briefly: Cytotoxicity toward MDA-MB-231 cells. Format: cell-based. As to conditions: Homo sapiens, read-out: cytotoxicity IC50 ± s.d., MDA-MB-231. How it is done:
as §1

Data set [7] relates to RPMI 8226 cells. Details: method as in PMID 30165344. As to conditions: earlier work; read-out: cytotoxicity IC50, RPMI 8226; cited from earlier work.
The test system of data set [8] is MCF-7 cells. On the set-up: method as in PMID 30165344. As to conditions: earlier work; read-out: cytotoxicity IC50, MCF-7; cited from earlier work.
In data set [9] the test system is MDA-MB-231 cells. Details: method as in PMID 30165344. As to conditions: earlier work; read-out: cytotoxicity IC50, MDA-MB-231; cited from earlier work.
The test system of data set [10] is MCF-10A cells. As to the kind of experiment: Cytotoxicity toward MCF-10A cells (normal breast tissue model). Format: cell-based. As to conditions: Homo sapiens, model for normal breast tissue.
Data set [11] is described as follows: Experimentally determined LogP. Format: physicochemical.
The nature of data set [12]: Half-life in buffer. Format: physicochemical. From the text: (§2) Isosteric replacement of the phenyl ring at Pz by either a pyridyl or pyrazyl group was well tolerated, allowing the inclusion of one (compounds 8b–d and 8g–i) or two nitrogen atoms (compounds 8e and 8j).
Data set [13] is described as follows: Biological stability in serum. Format: in vitro ADME.
Source text: as §2

Turning to `CC(C)C[C@H](NC(=O)[C@H](Cc1ccccc1)NC(=O)c1cnccn1)B(O)O` [bortezomib], the “peripheral neuropathy, share of patients” value in data set [1] is recorded as “more than 30%”.

With `CC[C@H](C)[C@@H]1C(=O)O[C@H]1C(=O)N[C@H](C(=O)N[C@@H](COCc1ccccc1)C(=O)NCc1ccccn1)C(C)C` [8b], the half-maximal inhibitory concentration (IC50) turned out to be 4.1 ± 1.9 nM in data set [2]; 58 ± 14 nM in data set [3]; 139 ± 6 nM in data set [4]; 453 ± 24 nM in data set [5]; 156 ± 3 nM in data set [6].

`CC[C@H](C)[C@@H]1C(=O)O[C@H]1C(=O)N[C@H](C(=O)N[C@@H](COCc1ccccc1)C(=O)NCc1cc(OC)cc(OC)c1)C(C)C` [8f]: the IC50 was determined as 4.5 ± 1.5 nM in [2]; 63 ± 2 nM in data set [3]; 26 ± 1 nM in data set [4]; 322 ± 39 nM in data set [5]; 53 ± 2 nM in data set [6].

`CC[C@H](C)[C@@H]1C(=O)O[C@H]1C(=O)N[C@H](C(=O)N[C@@H](COCc1ccccc1)C(=O)NCc1ccncc1)C(C)C` [8d]: the IC50 was 3 ± 1.2 nM in data set [2]; 64 ± 10 nM in data set [3]; 37 ± 1 nM in data set [4]; 5300 ± 598 nM in data set [5]; 328 ± 12 nM in [6].

In the case of `CC[C@H](C)[C@@H]1C(=O)O[C@H]1C(=O)N[C@H](C(=O)N[C@@H](COCc1ccccc1)C(=O)OCc1ccccc1)C(C)C` [compound 1], the IC50 in data set [3] is 62 ± 7 nM; in [4], 45 ± 0.5 nM; in [5], 2380 ± 261 nM; in [6] it was 620 ± 50 nM; in [7] it was 41 nM; in data set [8], 416 nM. In addition, the concentration for half-maximal inhibition (IC50) in data set [9] is 74 nM.

Regarding `CC[C@H](C)[C@@H]1C(=O)O[C@H]1C(=O)N[C@H](C(=O)N[C@@H](COCc1ccccc1)C(=O)OCc1cnccn1)C(C)C` [8j], the IC50 in [2] turned out to be 13.7 ± 1.6 nM; in data set [3], 166 ± 9 nM; in data set [4] it was 48 ± 2 nM; in data set [5] it was 4530 ± 290 nM; in [6] it was 146 ± 3 nM.

With `CC[C@H](C)[C@@H]1C(=O)O[C@H]1C(=O)N[C@H](C(=O)N[C@@H](COCc1ccccc1)C(=O)OCc1ccc(Cl)cc1)C(C)C` [8k], the 50% inhibitory concentration (IC50) in data set [2] was 18.2 ± 54 nM; in data set [3], 182 ± 15 nM; in data set [4], 182 ± 4 nM; in [5], 3500 ± 279 nM; in [6] it was 222 ± 15 nM.

For the compound `CC[C@H](C)[C@@H]1C(=O)O[C@H]1C(=O)N[C@H](C(=O)N[C@@H](COCc1ccccc1)C(=O)OCc1ccc(OC)cc1)C(C)C` [8l], the IC50 in data set [2] amounted to 18.8 ± 5 nM; in data set [3], 2260 ± 158 nM; in data set [4], 112 ± 2 nM; in data set [5] it was 1670 ± 267 nM; in [6], 636 ± 47 nM.

Take `CC[C@H](C)[C@@H]1C(=O)O[C@H]1C(=O)N[C@H](C(=O)N[C@@H](COCc1ccccc1)C(=O)NCc1cnccn1)C(C)C` [8e]: the IC50 in data set [2] is 8.4 ± 3.4 nM; in [3] it was 132 ± 4 nM; in data set [4], 31 ± 2 nM; in data set [5], 5180 ± 602 nM; in data set [6], 255 ± 6 nM.

For `CC[C@H](C)[C@@H]1C(=O)O[C@H]1C(=O)N[C@H](C(=O)N[C@@H](COCc1ccccc1)C(=O)OCc1ccncc1)C(C)C` [8i], the IC50 in data set [2] stood at 4 ± 1.1 nM; in [3], 36 ± 10 nM; in data set [4], 35 ± 3 nM; in data set [5] it was 4930 ± 403 nM; in data set [6], 108 ± 7 nM.

Regarding `CC[C@H](C)[C@@H]1C(=O)O[C@H]1C(=O)N[C@H](C(=O)N[C@@H](COCc1ccccc1)C(=O)NCc1cccnc1)C(C)C` [8c], the half-inhibitory concentration (IC50) in [2] is 3.9 ± 1.8 nM; in [3], 71 ± 19 nM; in [4], 85 ± 3 nM; in data set [5], 5630 ± 550 nM; in data set [6], 242 ± 6 nM.

On to `CC[C@H](C)[C@@H]1C(=O)O[C@H]1C(=O)N[C@H](C(=O)N[C@@H](COCc1ccccc1)C(=O)OCc1ccccn1)C(C)C` [8g], for which the IC50 was found to be 7.1 ± 1.6 nM in data set [2]; 35 ± 10 nM in data set [3]; 21 ± 3 nM in [4]; 1020 ± 42 nM in data set [5]; 39 ± 2 nM in data set [6]; 123 nM in [10]. For the same compound, in [11], the logP was 1.65. The half-life in data set [12] is greater than 10 min. Also, the “biological stability in serum” value in data set [13] was “greater than 5 min”.

With `CC[C@H](C)[C@@H]1C(=O)O[C@H]1C(=O)N[C@H](C(=O)N[C@@H](COCc1ccccc1)C(=O)OCc1cccnc1)C(C)C` [8h], the 50% inhibitory concentration (IC50) in data set [2] was found to be 3.3 ± 1.8 nM; in data set [3] it was 61 ± 16 nM; in [4] it was 43 ± 2 nM; in data set [5], 3800 ± 293 nM; in data set [6], 132 ± 3 nM.

As to `CC(C)C[C@H](NC(=O)[C@H](CCc1ccccc1)NC(=O)CN1CCOCC1)C(=O)N[C@@H](Cc1ccccc1)C(=O)N[C@@H](CC(C)C)C(=O)[C@@]1(C)CO1` [carfilzomib, reference compound], the half-inhibitory concentration (IC50) came to 3.7 ± 0.3 nM in data set [3]; 3.7 ± 0.3 nM in data set [4]; 5.9 ± 0.7 nM in data set [5]; 4.4 ± 0.1 nM in data set [6]; 79 nM in data set [10].

Take `CC[C@H](C)[C@@H]1C(=O)O[C@H]1C(=O)N[C@H](C(=O)N[C@@H](COCc1ccccc1)C(=O)NCc1ccccc1)C(C)C` [8a]: the IC50 in [2] was found to be 2.3 ± 0.9 nM; in data set [3], 12 ± 2 nM; in data set [4], 64 ± 4 nM; in data set [5] it was 2290 ± 195 nM; in data set [6] it was 1940 ± 166 nM.
